Test results published in patent US6479540B1, “Compositions of tocol-soluble therapeutics” (Sonus Pharmaceuticals, Inc., priority 1999, dated 2002).
Structures can show the parent of a compound that is named as a salt.

What was measured:
Type in all cases: physicochemical
[1] = Erythromycin solubility in oils
[2] = Solubility of clarithromycin in tocopherol oil phase (crystals on cooling)
Protocol: Clarithromycin was obtained as the free base from Wockhardt (Delhi, India). Vitamin E Succinate (VESA) was obtained from Eastman (Freeport Tenn.). Capmul® MCM was obtained from Abitec (Janesville Wis.); Poloxamer® 407 (Pluronic® F-127) from BASF (Parsippany N.J.); PEG-400 from Spectrum Chemicals (Gardenia Calif.), and d-δ-tocopherol from Sigma Chemicals (St Louis MO). An oil phase consisting of d-δ-tocopherol and Capmul MCM was prepared using 2 parts of δ-tocopherol. Dry ethanol was used to dissolve the components at 70° C. and the ethanol was then removed under vacuum. […] A tocol-soluble ion pair of this compound was then produced by addition of a stoichiometric equivalent of Vitamin E succinate (VESA) as the free acid. […] The clarithromycin was now sufficiently soluble in the tocopherol oil to allow subsequent preparation of the emulsion. The oil was then re-heated to 45° C. and degassed immediately prior to emulsification as described below.

[3] = Release rate by dialysis in a diffusion chamber model; conditions: against 20% glycerol, 3% Poloxamer 407, pH 7.4, 37° C.
Protocol: Amiodarone HCl and a tocol emulsion containing amiodarone and tocopherol phosphate as a tocol-soluble binary ion pair, prepared as mentioned above, were dialyzed against 20% glycerol, 3% Poloxamer 407 at pH 7.4 and 37° C.
The rate of free or complexed drug exiting the dialysis chamber provides an indirect estimate of the “sustained release” properties of the emulsion and the strength of the ion pair species.

[4] = Doxorubicin ion pair solubility in vitamin E and emulsification; conditions: ion pair with vitamin E phosphate free acid at 2:1 molar ratio
From the text: A fine emulsion can be prepared using high pressure homogenization to reduce particle size.

In the case of `CC[C@H]1OC(=O)[C@H](C)[C@@H](O[C@H]2C[C@@](C)(OC)[C@@H](O)[C@H](C)O2)[C@H](C)[C@@H](O[C@@H]2O[C@H](C)C[C@H](N(C)C)[C@H]2O)[C@](C)(O)C[C@@H](C)C(=O)[C@H](C)[C@@H](O)[C@]1(C)O` [Erythromycin], the “solubility in medium-chain triglycerides (MCT)” value ([1]; MCT) is reported as ~4 % w/w and the “solubility in α-tocopherol” value ([1]; α-tocopherol) is reported as “approximately 10 % w/w”.
For `CC[C@H]1OC(=O)[C@H](C)[C@@H](O[C@H]2C[C@@](C)(OC)[C@@H](O)[C@H](C)O2)[C@H](C)[C@@H](O[C@@H]2O[C@H](C)C[C@H](N(C)C)[C@H]2O)[C@](C)(OC)C[C@@H](C)C(=O)[C@H](C)[C@@H](O)[C@]1(C)O` [Clarithromycin], the “Crystallization upon cooling of the oil” value ([2]; after addition of a stoichiometric equivalent of Vitamin E succinate (free acid), re-dissolution in ethanol and cooling) was “no crystals formed” and the “Crystallization upon cooling of the oil” value ([2]; d-δ-tocopherol/Capmul MCM oil phase with surfactant, ethanol removed, without Vitamin E succinate) was “crystals of clarithromycin were observed”.
With `CCCCc1oc2ccccc2c1C(=O)c1cc(I)c(OCCN(CC)CC)c(I)c1` [Amiodarone HCl] the “Rate of dialysis / diffusion out of the dialysis chamber” value [3] was “linear with concentration”.
In the case of `COc1cccc2c1C(=O)c1c(O)c3c(c(O)c1C2=O)C[C@@](O)(C(=O)CO)C[C@@H]3O[C@H]1C[C@H](N)[C@H](O)[C@H](C)O1` [doxorubicin free base, Doxorubicin], the “Solubility of ion pair in vitamin E” value [4] is reported as “soluble in vitamin E”.
